Test results: US6914045B2, “Glycopeptide antibiotics” (Wyeth Holdings Corporation, priority 2001, dated 2005)

Tests used:
Test in all cases: in vitro antibacterial evaluation, MIC by broth dilution
Assay type in all cases: cell-based
Staphylococcus sp. = test system: Staphylococcus sp.
Method: (§1) Methods for in vitro Antibacterial Evaluation (Table 1)
(§2) The minimum inhibitory concentration (MIC), the lowest concentration of the antibiotic which inhibits growth of the test organism, is determined by the broth dilution method using Muller-Hinton II […] (Baltimore Biological Laboratories) following the recommendations of the National Committee for Clinical Laboratory Standards [Methods for dilution antimicrobial susceptibility tests for bacteria that grow aerobically, approved standard M7-A2, National Committee for Clinical Laboratory Standards, Villanova, Pa.].
(§3) An inoculum level of 5×10^5 CFU/mL, and a range of antibiotic concentrations (64-0.06 μg/mL) is used. […] The test organisms include a spectrum of Gram-positive bacteria comprised of Staphylococcus sp., Streptococcus sp. and Enterococcus sp. These organisms include recent clinical isolates that are resistant to methicillin, penicillin and/or vancomycin.

Enterococcus sp. = conditions: broth dilution, 18 hours at 35° C.
Method: as §1, §2, §3

Streptococcus sp. = conditions: broth dilution, 18 hours at 35° C.
Method: as §1, §2, §3

Escherichia coli = conditions: 18 hours at 35° C.
Method: as §2, §3

[1] = broth dilution, 18 hours at 35° C.
[2] = strain ATCC 29213; broth dilution, 18 hours at 35° C.
[3] = strain GC 1131; broth dilution, 18 hours at 35° C.
[4] = strain GC 3051; broth dilution, 18 hours at 35° C.
[5] = strain GC 3053; broth dilution, 18 hours at 35° C.
[6] = strain GC 4541; broth dilution, 18 hours at 35° C.
[7] = strain GC 4542; broth dilution, 18 hours at 35° C.
[8] = strain GC 4544; broth dilution, 18 hours at 35° C.
[9] = strain GC 4545; broth dilution, 18 hours at 35° C.

CC(c1ccccc1)C1NC(=O)CNC(=O)C(CO)NC(=O)C(C(O)C2CN(Cc3ccc(C(F)(F)F)cc3)C(=N)N2C2OC(CO)C(O)C(O)C2O)NC(=O)C(C(O)C2CNC(=N)N2)NC(=O)C(Cc2ccc(OC3OC(CO)C(OC4OC5COC6(OC5C(O)C4O)C4CC5CC(C4)CC6C5)C(O)C3O)cc2)NC1=O (stereo not shown) [Example 226]
32 µg/mL: MIC Enterococcus faecalis (ATCC 29212) (Enterococcus sp.) | MIC Enterococcus faecalis (GC 2691) (Enterococcus sp.) | MIC Enterococcus faecalis (GC 3059) (Enterococcus sp.) | MIC Enterococcus faecalis (GC 4552) (Enterococcus sp.) | MIC Enterococcus faecalis (GC 4554) (Enterococcus sp.) | MIC Enterococcus faecalis (GC 6189) (Enterococcus sp.) | MIC Enterococcus faecium (GC 4556) (Enterococcus sp.) | MIC Enterococcus faecalis (ATCC 29212) (Enterococcus sp.; inoculum 5×10^5 CFU/mL, strain ATCC 29212) | MIC Enterococcus faecalis (GC 2691) (Enterococcus sp.; inoculum 5×10^5 CFU/mL, strain GC 2691) | MIC Enterococcus faecalis (GC 3059) (Enterococcus sp.; inoculum 5×10^5 CFU/mL, strain GC 3059) | MIC Enterococcus faecalis (GC 4552) (Enterococcus sp.; inoculum 5×10^5 CFU/mL, strain GC 4552) | MIC Enterococcus faecalis (GC 4554) (Enterococcus sp.; inoculum 5×10^5 CFU/mL, strain GC 4554) | MIC Enterococcus faecium (GC 4556) (Enterococcus sp.; inoculum 5×10^5 CFU/mL, strain GC 4556) | MIC Enterococcus faecalis (GC 6189) (Enterococcus sp.; inoculum 5×10^5 CFU/mL, strain GC 6189)
>128 µg/mL: MIC Escherichia coli (ATCC 25922) (Escherichia coli)
2 µg/mL: MIC Coagulase Negative Staphylococcus (GC 6257) (Staphylococcus sp.; [1]) | MIC Coagulase Negative Staphylococcus (GC 6257) (Staphylococcus sp.; broth dilution, 18 hours at 35° C.; strain GC 6257) | MIC Enterococcus faecium (GC 4557) (Enterococcus sp.) | MIC Enterococcus faecium (GC 4557) (Enterococcus sp.; inoculum 5×10^5 CFU/mL, strain GC 4557) | MIC Streptococcus pyogenes (GC 4563) (Streptococcus sp.) | MIC Streptococcus pyogenes (GC 4563) (Streptococcus sp.; inoculum 5×10^5 CFU/mL, strain GC 4563)
0.5 µg/mL: MIC Streptococcus pneumoniae (GC 1894) (Streptococcus sp.) | MIC Streptococcus pneumoniae (GC 1894) (Streptococcus sp.; inoculum 5×10^5 CFU/mL, strain GC 1894)
128 µg/mL: MIC Escherichia coli (GC 4559) (Escherichia coli)
16 µg/mL: MIC Coagulase Negative Staphylococcus (GC 4549) (Staphylococcus sp.; [1]) | MIC Coagulase Negative Staphylococcus (GC 4549) (Staphylococcus sp.; broth dilution, 18 hours at 35° C.; strain GC 4549) | MIC Staphylococcus aureus (ATCC 29213) (Staphylococcus sp.; [2]) | MIC Staphylococcus aureus (GC 1131) (Staphylococcus sp.; [3]) | MIC Staphylococcus aureus (GC 3051) (Staphylococcus sp.; [4]) | MIC Staphylococcus aureus (GC 3053) (Staphylococcus sp.; [5]) | MIC Staphylococcus aureus (GC 4542) (Staphylococcus sp.; [7]) | MIC Staphylococcus aureus (GC 4544) (Staphylococcus sp.; [8]) | MIC Staphylococcus aureus (GC 4545) (Staphylococcus sp.; [9]) | MIC Enterococcus faecalis (GC 2242) (Enterococcus sp.) | MIC Enterococcus faecalis (GC 4553) (Enterococcus sp.) | MIC Enterococcus faecium (GC 2243) (Enterococcus sp.) | MIC Enterococcus faecalis (GC 2242) (Enterococcus sp.; inoculum 5×10^5 CFU/mL, strain GC 2242) | MIC Enterococcus faecium (GC 2243) (Enterococcus sp.; inoculum 5×10^5 CFU/mL, strain GC 2243) | MIC Enterococcus faecalis (GC 4553) (Enterococcus sp.; inoculum 5×10^5 CFU/mL, strain GC 4553)
8 µg/mL: MIC Coagulase Negative Staphylococcus (GC 4547) (Staphylococcus sp.; [1]) | MIC Coagulase Negative Staphylococcus (GC 4548) (Staphylococcus sp.; [1]) | MIC Coagulase Negative Staphylococcus (GC 4551) (Staphylococcus sp.; [1]) | MIC Staphylococcus aureus-SMITH (GC 4543) (Staphylococcus sp.; [1]) | MIC Staphylococcus haemolyticus (GC 4546) (Staphylococcus sp.; [1]) | MIC Staphylococcus aureus-SMITH (GC 4543) (Staphylococcus sp.; broth dilution, 18 hours at 35° C.; strain GC 4543) | MIC Staphylococcus haemolyticus (GC 4546) (Staphylococcus sp.; broth dilution, 18 hours at 35° C.; strain GC 4546) | MIC Coagulase Negative Staphylococcus (GC 4547) (Staphylococcus sp.; broth dilution, 18 hours at 35° C.; strain GC 4547) | MIC Coagulase Negative Staphylococcus (GC 4548) (Staphylococcus sp.; broth dilution, 18 hours at 35° C.; strain GC 4548) | MIC Coagulase Negative Staphylococcus (GC 4551) (Staphylococcus sp.; broth dilution, 18 hours at 35° C.; strain GC 4551) | MIC Staphylococcus aureus (GC 4541) (Staphylococcus sp.; [6]) | MIC Enterococcus avium (GC 4558) (Enterococcus sp.) | MIC Enterococcus avium (GC 4558) (Enterococcus sp.; inoculum 5×10^5 CFU/mL, strain GC 4558)
4 µg/mL: MIC Streptococcus agalactiae (GC 4564) (Streptococcus sp.) | MIC Streptococcus pneumoniae (ATCC 6301) (Streptococcus sp.) | MIC Streptococcus pneumoniae (GC 4565) (Streptococcus sp.) | MIC Streptococcus pneumoniae (ATCC 6301) (Streptococcus sp.; inoculum 5×10^5 CFU/mL, strain ATCC 6301) | MIC Streptococcus agalactiae (GC 4564) (Streptococcus sp.; inoculum 5×10^5 CFU/mL, strain GC 4564) | MIC Streptococcus pneumoniae (GC 4565) (Streptococcus sp.; inoculum 5×10^5 CFU/mL, strain GC 4565) | MIC Escherichia coli (GC 4560) (Escherichia coli)

COc1ccc(Oc2cccc(-c3nc4cc(CC5NC(=O)C(C(C)c6ccccc6)NC(=O)CNC(=O)C(CO)NC(=O)C(C(O)C6CNC(=N)N6C6OC(CO)C(O)C(O)C6O)NC(=O)C(C(O)C6CNC(=N)N6)NC5=O)ccc4o3)c2)cc1 (stereo not drawn) [Example 35, Cyclo[3-[2-[3-(4-methoxyphenoxy)phenyl]-1,3-benzoxazol-5-yl]alanyl-3-(2-iminoimidazolidin-4-yl)seryl-3-(3-hexopyranosyl-2-iminoimidazolidin-4-yl)serylserylglycyl-β-methylphenyl-alanyl]]
16 µg/mL: MIC Enterococcus faecalis (ATCC 29212) (Enterococcus sp.; strain ATCC 29212) | MIC Enterococcus faecalis (GC 2242) (Enterococcus sp.; strain GC 2242) | MIC Enterococcus faecalis (GC 2691) (Enterococcus sp.; strain GC 2691) | MIC Enterococcus faecalis (GC 6189) (Enterococcus sp.; strain GC 6189) | MIC Streptococcus pneumoniae (GC 4565) (Streptococcus sp.; strain GC 4565) | MIC Escherichia coli (GC 4560) (Escherichia coli; strain GC 4560, broth dilution)
8 µg/mL: MIC Staphylococcus aureus (ATCC 29213) (Staphylococcus sp.; [2]) | MIC Staphylococcus aureus (GC 1131) (Staphylococcus sp.; [3]) | MIC Staphylococcus aureus (GC 3051) (Staphylococcus sp.; [4]) | MIC Staphylococcus aureus (GC 3053) (Staphylococcus sp.; [5]) | MIC Staphylococcus aureus (GC 4541) (Staphylococcus sp.; [6]) | MIC Staphylococcus aureus (GC 4542) (Staphylococcus sp.; [7]) | MIC Staphylococcus aureus-SMITH (GC 4543) (Staphylococcus sp.; strain GC 4543; broth dilution, 18 hours at 35° C.) | MIC Staphylococcus aureus (GC 4544) (Staphylococcus sp.; [8]) | MIC Staphylococcus aureus (GC 4545) (Staphylococcus sp.; [9]) | MIC Staphylococcus haemolyticus (GC 4546) (Staphylococcus sp.; strain GC 4546; broth dilution, 18 hours at 35° C.) | MIC Coagulase Negative Staphylococcus (GC 4547) (Staphylococcus sp.; strain GC 4547; broth dilution, 18 hours at 35° C.) | MIC Coagulase Negative Staphylococcus (GC 4548) (Staphylococcus sp.; strain GC 4548; broth dilution, 18 hours at 35° C.) | MIC Coagulase Negative Staphylococcus (GC 4549) (Staphylococcus sp.; strain GC 4549; broth dilution, 18 hours at 35° C.) | MIC Coagulase Negative Staphylococcus (GC 4551) (Staphylococcus sp.; strain GC 4551; broth dilution, 18 hours at 35° C.) | MIC Enterococcus faecium (GC 2243) (Enterococcus sp.; strain GC 2243) | MIC Enterococcus faecalis (GC 4553) (Enterococcus sp.; strain GC 4553) | MIC Enterococcus avium (GC 4558) (Enterococcus sp.; strain GC 4558) | MIC Streptococcus pneumoniae (ATCC 6301) (Streptococcus sp.; strain ATCC 6301) | MIC Streptococcus pneumoniae (GC 1894) (Streptococcus sp.; strain GC 1894) | MIC Streptococcus agalactiae (GC 4564) (Streptococcus sp.; strain GC 4564)
>128 µg/mL: MIC Escherichia coli (ATCC 25922) (Escherichia coli; strain ATCC 25922, broth dilution) | MIC Escherichia coli (GC 4559) (Escherichia coli; strain GC 4559, broth dilution)
2 µg/mL: MIC Coagulase Negative Staphylococcus (GC 6257) (Staphylococcus sp.; strain GC 6257; broth dilution, 18 hours at 35° C.) | MIC Streptococcus pyogenes (GC 4563) (Streptococcus sp.; strain GC 4563)
4 µg/mL: MIC Enterococcus faecium (GC 4557) (Enterococcus sp.; strain GC 4557)
32 µg/mL: MIC Enterococcus faecalis (GC 3059) (Enterococcus sp.; strain GC 3059) | MIC Enterococcus faecalis (GC 4552) (Enterococcus sp.; strain GC 4552) | MIC Enterococcus faecalis (GC 4554) (Enterococcus sp.; strain GC 4554) | MIC Enterococcus faecium (GC 4556) (Enterococcus sp.; strain GC 4556)
